Read-outs that look alike come from different tables or passages of the source.
Columns and labels:
[1] = tested on: ABM 42 C31 leukemic stem cells; test: Therapeutic trial: survival of mice transplanted with leukemic stem cells (pre-clinical model of AML); assay type: in vivo; conditions: 7 daily injections of 250 ul of 10 uM solution, intravenously, from clinical signs (about 15 d post-transplant); FIG. 5
From the text: Groups of 3-5 mice are utilized for each of the experimental protocols. Transplantation of tumors is done by injecting 10^3 cells intravenously into cohorts of sub-lethally irradiated (450R)C57/BL6/Rag −/− mice ranging in age from 4-6 weeks. The mice are monitored daily for clinical signs of disease. These clinical signs included externally evident splenomegaly, a hunched posture and reduce mobility, labored breathing, dehydration, scruffy fur and an ascending paralysis in a minority of cases. […] The mice then receive daily injections of the indicated agents for 7 days. Mice are held indefinitely to ascertain rates of survival.
Into cohorts of sublethally irradiated mice are transplanted 10^3 ABM 42 C31 leukemic stem cells. Treatment of the mice when they develop clinical signs of disease (hunched posture, rapid breathing, scruffled fur at approximately 15d post-transplant). Mice receive 7 daily injections of 250 ul XPBS solutions containing 10 uM concentrations of 4-Amino-7-[(2R,3S,4S,5R)-3,4-dihydroxy-5-(hydroxymethyl)oxolan-2-yl]-6-hydrazinylpyrrolo[5,4-d]pyrimidine-5-carboxamide, 2-[(2-chloro-4-nitrophenanthridin-6-yl)amino]ethanol, and 5-(anthracen-1-ylmethylidene)-2-sulfanylidene-1,3diazinane-4,6-dione. After the 7th day the mice are monitored for survival. FIG. 5 illustrates that administration of the compounds delay mortality in a pre-clinical model of AML disease.

[2] = tested on: leukemic stem cell clone ABM42 C31; test: MTS viability assay, murine leukemic stem cell line; assay type: cell-based; conditions: serial two-fold dilutions starting from 10 μM, 24 h, FIG. 1
Experimental: (§1) Leukemic stem cell lines and normal hematopoetic stem cell lines are separately maintained in cultures as described above. For viability assays, the cell lines are passed 24-36 hours prior to use in the assay, in order to test for sensitivity to specific drugs with cells in log-phase growth. Cells are plated in 96-well flat bottom plates (Greiner, Switzerland), at a concentration of 10^4 cells for the leukemic stem cell lines and normal hematopoietic stem cell lines, or 10^5 for the primary human fetal cord blood cells. Cells are plated in a final volume of 200 μl containing RPMI-1640 growth medium, supplemented as described above. Cells are either plated in medium alone, or medium containing a drug of interest. All drugs are tested in 11 different concentrations in order to derive sensitivity curves. The individual conditions were set up in triplicate wells, and at least three independent assays are performed to validate a specific observation.
(§2) The cells are cultured with the specific drug concentration for 24 hours at 37° C. in a 5% CO2 atmosphere. After culturing the cells under the experimental conditions for 23 hours, the wells are supplemented with 10 μl of the CellTiter 96 Aqueous Non-radioactive Cell Proliferation MTS reagent (Promega, Madison Wis.), and incubated in a 37° C. incubator (5% CO2) for 60 minutes. All plates are analyzed using a plate reader (Molecular Devices) using a filter set for O.D. 405. All values are used to derive standard errors, and compared among the different independent assays.
(§3) These compounds are screened for the ability to inhibit leukemic stem cell viability but not affect normal hematopoietic stem cells by incubating the compounds with cells using serial two-fold dilutions starting from 10 μM stocks.

[3] = tested on: leukemic cell line (U937); test: MTS viability assay, human leukemic cell line; assay type: cell-based; conditions: serial two-fold dilutions beginning with 10 μM, 24 h, FIG. 3
Experimental: as §1, §2
These compounds are incubated with cells using serial two-fold dilutions beginning with 10 μM.

[4] = mouse, in vivo
leukemic stem cells [5] = test: Flow cytometric analysis of apoptosis induction (7AAD); assay type: cell-based; conditions: 10 μM; 24 h; versus normal murine hematopoietic stem cell lines; FIG. 2
Experimental: For analysis of apoptosis in leukemic stem cells or in normal hematopoietic stem cell lines, cells are cultured (in triplicate) with the specific drug concentration for 24 hours at 37° C. in a 5% CO2 atmosphere. Cell suspensions obtained from cultured cells are washed twice in FACS buffer, incubated for 20 minutes with 4 μM 7-aminoactinomycin-D (7AAD, Calbiochem), and washed with FACS buffer. Stained cells are resuspended in PBS and analyzed immediately on a flow cytometer.
4-Amino-7-[(2R,3S,4S,5R)-3,4-dihydroxy-5-(hydroxymethyl)oxolan-2-yl]-6-hydrazinylpyrrolo[5,4-d]pyrimidine-5-carboxamide, 2-[(2-chloro-4-nitrophenanthridin-6-yl)amino]ethanol, and 5-(anthracen-1-ylmethylidene)-2-sulfanylidene-1,3diazinane-4,6-dione preferentially kill murine leukemic stem cell viability vs. normal murine hematopoietic stem cell line. These compounds are screened to determine whether the effect of the compounds on reduced viability was due to inhibiting proliferation, or direct killing through apoptosis. The cells are analyzed by flow cytometric analysis for the exclusion of 7-aminoactinomycin-D (7AAD). At a concentration of 10 μM, cells are incubated in a 5% CO2 atmosphere for 24 h. After two washes in 1×PBS the cells are incubated with 4 μM 7-aminoactinomycin-D (7AAD) for 20 min.

[6] = assay type: in vivo; conditions: immune deficient mice reconstituted with murine hematopoetic stem cell lines; 7 daily injections of 1 mM concentrations
Experimental: Immune deficient mice that are reconstituted with the murine hematopoetic stem cell lines are injected with 10,000× the effective in vitro concentration of a drug. Briefly, mice are given 7 daily injections of 1 mM concentrations of one of 4-Amino-7-[(2R,3S,4S,5R)-3,4-dihydroxy-5-(hydroxymethyl)oxolan-2-yl]-6-hydrazinylpyrrolo[5,4-d]pyrimidine-5-carboxamide, 2-[(2-chloro-4-nitrophenanthridin-6-yl)amino]ethanol, and 5-(anthracen-1-ylmethylidene)-2-sulfanylidene-1,3diazinane-4,6-dione. After the 7th day the mice are monitored for overt side-effects and survival.

[7] = tested on: normal murine hematopoietic stem cell line "BL/6 BM"; test: MTS viability assay, normal murine hematopoietic stem cell line; assay type: cell-based; conditions: serial two-fold dilutions starting from 10 μM, 24 h, FIG. 1
Experimental: as §1, §2, §3

leukemic stem cells [8] = test: Killing of leukemic stem cells (FIG. 6); assay type: cell-based
[9] = tested on: normal hematopoietic stem cells; test: Effect on normal hematopoietic stem cells (FIG. 6); assay type: cell-based
[10] = Bone marrow toxicity in mice (FIG. 17); conditions: compared to mice treated with methotrexate (MTX)
[11] = tested on: primary unmanipulated fetal cord blood cells; test: MTS viability assay, primary fetal cord blood cells; assay type: cell-based, human; conditions: at the drug concentrations tested (two-fold dilutions from 10 μM), 24 h, FIG. 4
Experimental: as §1
The cells are cultured with the specific drug concentration for 24 hours at 37° C. in a 5% CO2 atmosphere. […] All plates are analyzed using a plate reader (Molecular Devices) using a filter set for O.D. 405. […]

| Compound | survival of mice transplanted with leukemic stem cells [1] | viability of leukemic stem cells [2] | viability of human leukemic cell lines [3] | bone marrow toxicity [4] | apoptosis induction (7AAD positive/GFP negative) (leukemic stem cells [5]) | mortality [6] | viability of normal murine hematopoietic stem cell line [7] | effect on leukemic stem cells (leukemic stem cells [8]) | effect on normal hematopoietic stem cells [9] | bone marrow toxicity [10] | viability of primary unmanipulated fetal cord blood cultures [11] |
| --- | --- | --- | --- | --- | --- | --- | --- | --- | --- | --- | --- |
| O=[N+]([O-])c1cc(Cl)cc2c1nc(NCCO)c1ccccc12 [2-[(2-chloro-4-nitrophenanthridin-6-yl)amino]ethanol] | increase survival | preferentially inhibited viability | preferentially inhibited viability of the leukemic cell lines | less bone marrow toxicity | induce apoptosis preferentially in leukemic stem cells | none of the mice died | but not the normal murine hematopoietic stem cell line |  |  |  |  |
| CN(Cc1cnc2nc(N)nc(N)c2n1)c1ccc(C(=O)N[C@@H](CCC(=O)O)C(=O)O)cc1 [methotrexate] |  |  |  |  |  |  |  | killed | killed |  |  |
| O=C1NC(=S)NC(=O)C1=Cc1cccc2cc3ccccc3cc12 [5-(anthracen-1-ylmethylidene)-2-sulfanylidene-1,3diazinane-4,6-dione] | increase survival | preferentially inhibited viability | preferentially inhibited viability of the leukemic cell lines |  | induce apoptosis preferentially in leukemic stem cells | none of the mice died | but not the normal murine hematopoietic stem cell line |  |  | less bone marrow toxicity | no decrease in viability |
| NNc1c(C(N)=O)c2c(N)ncnc2n1[C@@H]1O[C@H](CO)[C@@H](O)[C@@H]1O [4-amino-7-[(2R,3S,4S,5R)-3,4-dihydroxy-5-(hydroxymethyl)oxolan-2-yl]-6-hydrazinylpyrrolo[5,4-d]pyrimidine-5-carboxamide] | increase survival | preferentially inhibited viability | preferentially inhibited viability of the leukemic cell lines |  | induce apoptosis preferentially in leukemic stem cells | none of the mice died | but not the normal murine hematopoietic stem cell line |  |  | less bone marrow toxicity |  |
